Laboratory results from article PMC6149822, “A New Series of Pyrrole-Based Chalcones: Synthesis and Evaluation of Antimicrobial Activity, Cytotoxicity, and Genotoxicity” (Molecules : A Journal of Synthetic Chemistry and Natural …, 2017).
In brackets after ≈: the same amount, converted by molar mass.

Legend:
[1] = test system: NIH/3T3 mouse embryonic fibroblast cell line; test: MTT assay; type: cell-based; conditions: Mus musculus, NIH3T3, healthy cells for selectivity
Procedure: (§1) The anticancer effects of compounds 1–10 on A549 human lung adenocarcinoma (ATCC® CCL-185™), HepG2 human hepatocellular carcinoma (ATCC® HB-8065™), and C6 rat glioma (ATCC® CCL107™) cell lines were assessed using 3-(4,5-Dimethylthiazol-2-yl)-2,5-diphenyltetrazolium bromide (MTT) assay, whereas the selectivity of compounds 1–10 was tested using NIH/3T3 mouse embryonic fibroblast cell line (ATCC® CRL-1658™, London, UK). All cell lines were incubated according to the supplier’s recommendations. The cells were seeded as 1 × 10^4 cells into each well of the 96-well plates. MTT assay was performed as previously described. The compounds were tested between the concentrations equal to 1 mM and 0.000316 mM (1.0, 0.316, 0.10, 0.0316, 0.01, 0.00316, 0.001, 0.000316 mM). Stock solutions of compounds were prepared in dimethyl sulfoxide (DMSO) and further dilutions were made with fresh culture medium. The final DMSO concentration was under 1% [34] and cisplatin was used as a positive control. Inhibition % was calculated for each concentration according to the formula below, and IC50 values were determined by plotting a dose–response curve of inhibition % versus compound concentrations tested. All experiments were performed in quadruplicate.Inhibition % = 100 − [(ODtest compound − ODblank/ODsolvent control − ODblank)] × 100(1)

[2] = test system: A549 human lung adenocarcinoma cell line; test: MTT assay; type: cell-based; conditions: Homo sapiens, A549
Procedure: as §1

C6 rat glioma cell line = test: MTT assay; type: cell-based; conditions: Rattus norvegicus, C6
Procedure: as §1

[3] = test system: HepG2 human hepatocellular carcinoma cell line; test: MTT assay; type: cell-based; conditions: Homo sapiens, HepG2
Procedure: as §1

[4] = test system: C. parapsilosis (ATCC 22019); test: Microdilution susceptibility assay (MIC); type: cell-based, Candida parapsilosis; conditions: Lodderomyces parapsilosis, ATCC22019
Procedure: (§2) Compounds 1–10 were screened for their antimicrobial activity against gram-negative bacteria, gram-positive bacteria, and yeasts, listed in Table 1. Bacteria were grown in Mueller-Hinton Broth and yeasts were grown in Sabouraud Dextrose Broth (SDB) during experiments. Overnight cultures were prepared routinely by subculturing of stock culture onto Mueller-Hinton Agar for bacteria and Sabouraud Dextrose Agar for yeasts.
(§3) Microdilution susceptibility assay was used for the determination of antibacterial and anticandidal efficacy of compounds 1–10. Chloramphenicol and ketoconazole were used as positive controls for bacteria and yeasts, respectively. All experiments were designed according to the Clinical Laboratory Standards Institute (CLSI). All chemicals were dissolved in dimethyl sulfoxide (DMSO) to obtain stock solution (10 mg/mL). Two-fold serial dilutions (800, 400, 200...0.78 µg/mL) of the compounds were prepared from stock solutions with dH2O. 100 µL of each solution was transferred to 96-well microtiter plates and 100 µL of 10^6 CFU/mL of bacteria and 2 × 10^3 of CFU/mL yeast were added to related wells. As negative controls, wells including microorganisms without agents and wells including agents without microorganisms were used. The plates were kept at 35 °C for 18–20 h and the growth was determined with resazurin (20 mg/mL). Assays were carried out in triplicate.

C. glabrata (ATCC 90030) = test: Microdilution susceptibility assay (MIC); type: cell-based, Candida glabrata; conditions: Nakaseomyces glabratus, ATCC90030
Procedure: as §2, §3

E. faecalis (ATCC 29212) [5] = test: ATP luminescence microbial cell viability assay; type: cell-based, Enterococcus faecalis; conditions: 24 h treatment, result in words
Procedure: (§4) A model from BioTek Instruments Inc. combined with a BacTiter-Glo^TM Microbial Cell Viability assay (Promega Corp., Madison, WI, USA) was used to provide a sensitive and rapid method for determining the number of viable microbial cells in culture based on quantitation of the ATP present. […] After incubation, cultures were added into the wells (final concentration of bacteria was 5 × 10^5 CFU/mL and 2.5 × 10^6 CFU/mL for yeasts). After adding the BacTiter reagent, incubation time for bacteria and yeasts was 5 min and 15 min, respectively.
The assay generates a “glow-type” luminescent signal, produced by the luciferase reaction. Briefly, after chemicals and strains were incubated for 24 h, 100 µL of the culture was taken from each well and mixed with the same volume of the BacTiter-Glo™ reagent in a white, opaque-walled microtiter plate. Control wells containing medium without cells were prepared to obtain a value for background luminescence. Cells without compound were used as an ATP-positive control. The microplates were further incubated under agitation for 7 min. Bioluminescence was recorded in a multi-detection microplate reader (BioTek Synergy 2 Multi-Mode Microplate Reader, BioTek Instruments, Winooski, VT, USA). In Figure 3, results were given as percentage of untreated control, which is set at 100%. Experiments were performed in triplicate and each sample was measured in four replicates.

C. krusei (ATCC 6258) = test: Microdilution susceptibility assay (MIC); type: cell-based, Candida krusei; conditions: Pichia kudriavzevii, ATCC6258
Procedure: as §2, §3

E. faecalis (ATCC 51299) = test: Microdilution susceptibility assay (MIC); type: cell-based; conditions: Enterococcus faecalis, ATCC51299
Procedure: as §2, §3

C. albicans (ATCC 90028) = test: Microdilution susceptibility assay (MIC); type: cell-based; conditions: Candida albicans, ATCC90028
Procedure: as §2, §3

E. coli (ATCC 25922) = test: Microdilution susceptibility assay (MIC); type: cell-based; conditions: Escherichia coli, ATCC25922
Procedure: as §2, §3

S. aureus (ATCC 25923) = test: Microdilution susceptibility assay (MIC); type: cell-based; conditions: Staphylococcus aureus, ATCC25923
Procedure: as §2, §3

[6] = test system: K. pneumoniae (ATCC 700603); test: Microdilution susceptibility assay (MIC); type: cell-based; conditions: Klebsiella pneumoniae, ATCC700603
Procedure: as §2, §3

E. faecalis (ATCC 29212) [7] = test: Microdilution susceptibility assay (MIC); type: cell-based; conditions: Enterococcus faecalis, ATCC29212
Procedure: as §2, §3

C. albicans = test: ATP luminescence microbial cell viability assay; type: cell-based, Candida albicans; conditions: 24 h treatment, result in words
Procedure: as §4
The assay generates a “glow-type” luminescent signal, produced by the luciferase reaction. Briefly, after chemicals and strains were incubated for 24 h, 100 µL of the culture was taken from each well and mixed with the same volume of the BacTiter-Glo™ reagent in a white, opaque-walled microtiter plate. Control wells containing medium without cells were prepared to obtain a value for background luminescence. Cells without compound were used as an ATP-positive control. The microplates were further incubated under agitation for 7 min. Bioluminescence was recorded in a multi-detection microplate reader (BioTek Synergy 2 Multi-Mode Microplate Reader, BioTek Instruments, Winooski, VT, USA). […] Experiments were performed in triplicate and each sample was measured in four replicates.

IC50 [2]: > 322 mg/L
IC50 (C6 rat glioma cell line): > 322 mg/L
IC50 [3]: 27 mg/L (≈ 83.8 µM)
melting point: 94 to 95 °C
MIC [4]: 50 mg/L (≈ 155 µM)
MIC (C. glabrata (ATCC 90030)): 100 mg/L (≈ 310 µM)
MIC (C. krusei (ATCC 6258)): 100 mg/L (≈ 310 µM)
MIC (E. faecalis (ATCC 51299)): 200 mg/L (≈ 621 µM)
MIC (C. albicans (ATCC 90028)): 50 mg/L (≈ 155 µM)
MIC (E. coli (ATCC 25922)): 100 mg/L (≈ 310 µM)
MIC (S. aureus (ATCC 25923)): 100 mg/L (≈ 310 µM)
MIC [6]: 200 mg/L (≈ 621 µM)
MIC (E. faecalis (ATCC 29212) [7]): 100 mg/L (≈ 310 µM)
SMILES: Cn1cccc1C(=O)C=Cc1ccc(-c2ccccc2[N+](=O)[O-])o1 [Compound 3, 1-(1-Methyl-1H-pyrrol-2-yl)-3-(5-(2-nitrophenyl)furan-2-yl)prop-2-en-1-one]
IC50 [1]: > 322 mg/L
antimicrobial activity in ATP bioluminescence assay (E. faecalis (ATCC 29212) [5]): sensitive
antifungal activity in ATP bioluminescence assay (C. albicans): no statistically significant effects
